This is an account of results in patent US8343987B2, “Heterocyclic derivatives” (Bayer Intellectual Property GmbH, priority 2004, dated 2013).

In one experiment the test system is human polymorphonuclear cells (PMNs). In words: In vitro PMN elastolysis assay (Example II-A). It counts as cell-based. The following applies: at 1.2 μM; mean±s.e.m.; n=3 different donors at 3.6×10^5 cells per well. As for the experimental part: This assay is used to determine the elastolytic potential of human polymorphonuclear cells (PMNs) and assess the proportion of degradation due to neutrophil elastase [cf. Z. W. She et al., Am. J. Respir. Cell. Mol. Biol. 9386-392 (1993)].
Tritiated elastin, in suspension, is coated on to a 96 well plate at 10 μg per well. Test and reference [ZD-0892 (J. Med. Chem. 40, 1876-1885, 3173-3181 (1997), WO 95/21855) and α1 protease inhibitor (α1PI)] compounds are added to the wells at the appropriate concentrations. Human PMNs are separated from peripheral venous blood of healthy donors and resuspended in culture media. The neutrophils are added to the coated wells at concentrations ranging between […] cells per well. Porcine pancreatic elastase (1.3 μM) is used as a positive control for the assay, and α1PI (1.2 μM) is used as the positive inhibitor of neutrophil elastase. The cellular control is PMNs without compound at each appropriate cell density. The cells plus compounds are incubated in a humidified incubator at 37° C. for 4 hours. The plates are centrifuged to allow the harvest of cell supernatant only. The supernatant is transferred in 75 μl volumes to corresponding wells of a 96 well Lumaplate™ (solid scintillant containing plates). The plates are dried until no liquid is visible in the wells and read in a beta counter for 3 minutes per well. […]
As to “α1PI: α1 protease inhibitor, used as the positive inhibitor of neutrophil elastase”, the “inhibition of 3H-elastin elastolysis” value came to 83.46±3.97%.

The experiment is the same for the next values; noted with them: mean±s.e.m.; n=2 different donors at 3.6×10^5 cells per well.
One may read the IC50 as the midpoint of a concentration-inhibition curve. Consider `COc1ccc(C(=O)N[C@H](C(=O)N2CCC[C@H]2C(=O)N[C@H](C(=O)C(F)(F)F)C(C)C)C(C)C)cc1` [ZD-0892], for which the half-inhibitory concentration (IC50) was 45.5 ± 7.75 nM.

The target in another experiment is T1, human neutrophil elastase (HNE) (Homo sapiens, UniProt P08246).
T1 construct: purchased SERVA Electrophoresis GmbH, Heidelberg, Germany #20927.01
T1 sequence (P08246 30-267): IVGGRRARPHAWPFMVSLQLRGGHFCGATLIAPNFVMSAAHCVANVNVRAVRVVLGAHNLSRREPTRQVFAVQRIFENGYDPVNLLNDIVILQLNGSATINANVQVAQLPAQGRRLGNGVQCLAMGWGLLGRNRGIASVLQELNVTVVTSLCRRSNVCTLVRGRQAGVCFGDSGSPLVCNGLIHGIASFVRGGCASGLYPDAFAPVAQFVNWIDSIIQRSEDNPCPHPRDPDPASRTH
In words: In vitro inhibition of HNE using a fluorogenic peptide substrate (Example I-A). It counts as biochemical. The following applies: substrate MeOSuc-Ala-Ala-Pro-Val-AMC, continuous read-out, 384 MTP format. As for the experimental part:
The test solution is prepared by mixing 10 μl of test compound dilution, 20 μl of HNE enzyme dilution (final concentration 8-0.4 μU/ml, routinely 2.1 μU/ml) and 20 μl of substrate dilution (final concentration 1 mM-1 μM, routinely 20 μM), respectively. The solution is incubated for 0-2 hrs at 37° C. (routinely one hour). The fluorescence of the liberated AMC due to the enzymatic reaction is measured at 37° C. (TECAN spectra fluor plus plate reader). […] IC50 values are determined by RFU-versus-[I] plots. Km and Km(app.) values are determined by Lineweaver-Burk plots and converted to K1 values by Dixon plots.
For the molecule `COC(=O)c1cccc(CN2C(=O)N(c3cccc(C(F)(F)F)c3)C(C)=C(C(C)=O)C2c2ccc(C#N)cc2)c1` (stereo not shown) [Example 1, Methyl 3-{[5-acetyl-6-(4-cyanophenyl)-4-methyl-2-oxo-3-[3-(trifluoromethyl-)phenyl]-3,6-dihydropyrimidin-1(2H)-yl]methyl}benzoate], the IC50 is 30 nM.

On to `CC1=C(C#N)C(c2ccc(C#N)nc2)NC(=O)N1c1cccc(C(F)(F)F)c1` (stereo not shown) [Example 19A, 4-(6-Cyanopyridin-3-yl)-6-methyl-2-oxo-1-[3-(trifluoromethyl)phenyl]-1,2,3-,4-tetrahydro-pyrimidine-5-carbonitrile], for which the IC50 was found to be 70 nM.

Take `CC(=O)C1=C(C)N(c2cccc(C(F)(F)F)c2)C(=O)N(Cc2ccc(C(CC(C)C)C(=O)O)cc2)C1c1ccc(C#N)cc1` (stereo not shown) [Example 19]: the IC50 came to 20 nM.

For the molecule `CC1=C(C(=O)c2cccnc2)C(c2ccc(C#N)cc2)NC(=O)N1c1cccc(C(F)(F)F)c1` (stereo not shown) [Example 21A, 4-{6-Methyl-2-oxo-5-(pyridin-3-ylcarbonyl)-1-[3-(trifluoromethyl)phenyl]-1-,2,3,4-tetrahydro-pyrimidin-4-yl}benzonitrile], the IC50 amounted to 60 nM.

As for `CC(=O)C1=C(C)N(c2cccc(C(F)(F)F)c2)C(=O)N(Cc2ccc(C(=O)O)cc2)[C@@H]1c1ccc(C#N)cc1` [Example 22], the IC50 is 8 nM.

As for `CC(=O)C1=C(C)N(c2cccc(C(F)(F)F)c2)C(=O)N(/C=C/C(=O)O)C1c1ccc(C#N)cc1` (stereo not shown) [Example 24], the IC50 came to 10 nM.

Consider `CC1=C(C(=O)c2ccco2)C(c2ccc(C#N)cc2)N(CC(=O)O)C(=O)N1c1cccc(C(F)(F)F)c1` (stereo not shown) [Example 29A, [6-(4-Cyanophenyl)-5-(2-furoyl)-4-methyl-2-oxo-3-[3-(trifluoromethyl)pheny-l]-3,6-dihydropyrimidin-1(2H)-yl]acetic acid], for which the IC50 came out at 20 nM.

Regarding `CC1=C(C(=O)c2cccnc2)C(c2ccc(C#N)cc2)N(CC(=O)O)C(=O)N1c1cccc(C(F)(F)F)c1` (stereo not shown) [Example 31A, [6-(4-Cyanophenyl)-4-methyl-2-oxo-5-(pyridin-3-ylcarbonyl)-3-[3-(trifluoro-methyl)phenyl]-3,6-dihydropyrimidin-1(2H)-yl]acetic acid], the IC50 was found to be 10 nM.

For the molecule `CC1=C(C(=O)O)C(c2ccc(C#N)cc2)N(Cc2cccc(/C=C/C(=O)O)c2)C(=O)N1c1cccc(C(F)(F)F)c1` (stereo not shown) [Example 39, 3-{3-[(E)-2-Carboxyvinyl]benzyl}-4-(4-cyanophenyl)-6-methyl-2-oxo-1-[3-(trifluoromethyl)-phenyl]-1,2,3,4-tetrahydropyrimidine-5-carboxylic acid], the IC50 turned out to be 120 nM.

As for `CC1=C(C(=O)c2ccco2)C(c2ccc(C#N)cc2)N(Cc2cccc(C(=O)O)c2)C(=O)N1c1cccc(C(F)(F)F)c1` (stereo not shown) [Example 44], the IC50 came to 30 nM.

With `CC1=C(C(=O)c2cccnc2)C(c2ccc(C#N)cc2)N(CC(=O)NS(=O)(=O)CC(F)(F)F)C(=O)N1c1cccc(C(F)(F)F)c1` (stereo not shown) [Example 55, 2-[6-(4-Cyanophenyl)-4-methyl-2-oxo-5-(pyridin-3-ylcarbonyl)-3-[3-(trifluoromethyl)phenyl]-3,6-dihydropyrimidin-1(2H)-yl]-N-[(2,2,2-trifluoroethyl)sulfonyl]acetamide], the half-maximal inhibitory concentration (IC50) amounted to 20 nM.

Consider `C=CCOC(=O)C1=C(C)N(c2cccc(C(F)(F)F)c2)C(=O)N(C2(C(=O)OCC)CC2)C1c1ccc(C#N)cc1` (stereo not shown) [Example 61], for which the IC50 stood at 130 nM.

On to `C=CCOC(=O)C1=C(C)N(c2cccc(C(F)(F)F)c2)C(=O)N(CC(=O)NS(=O)(=O)c2ccc(C(F)(F)F)cc2)C1c1ccc(C#N)cc1` (stereo not shown) [Example 67], for which the IC50 worked out at 70 nM.

As for `CC(=O)C1=C(C)N(c2cccc(C(F)(F)F)c2)C(=O)N(CC(=O)NS(=O)(=O)c2ccc(C#N)cc2)[C@@H]1c1ccc(C#N)cc1` [Example 74], the IC50 is 10 nM.
